# Results as given in ChEMBL document CHEMBL1151488, “Synthesis and biological activity of J-104,118, a novel, potent inhibitor of squalene synthase” (Bioorg Med Chem Lett, 1995).
# Target: T1, Squalene synthase (Homo sapiens, UniProt P37268)
# T1 sequence (P37268 whole entry): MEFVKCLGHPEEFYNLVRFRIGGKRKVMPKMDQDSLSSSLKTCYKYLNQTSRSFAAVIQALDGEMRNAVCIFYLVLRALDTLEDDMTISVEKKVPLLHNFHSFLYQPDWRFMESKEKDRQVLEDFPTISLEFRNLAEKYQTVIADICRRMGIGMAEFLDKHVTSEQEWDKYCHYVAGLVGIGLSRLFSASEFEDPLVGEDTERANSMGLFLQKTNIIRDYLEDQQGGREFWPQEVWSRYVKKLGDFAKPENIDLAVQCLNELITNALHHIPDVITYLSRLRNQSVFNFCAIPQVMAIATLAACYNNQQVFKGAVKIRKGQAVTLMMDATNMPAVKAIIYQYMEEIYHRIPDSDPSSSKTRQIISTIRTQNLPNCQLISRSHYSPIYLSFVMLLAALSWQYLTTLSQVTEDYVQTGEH
# Experiment: Inhibitory activity against HepG2 Squalene Synthase (SQS)
row,IC50 [nM],SMILES
1,> 300,C[C@H](NC(=O)CC(CC(=O)O)C(=O)O)[C@@H](Cc1ccc(Cl)c(Cl)c1)c1ccc(-c2ccccc2)c(F)c1 (some centres not stated)
2,19,C[C@@H](NC(=O)C[C@H](CC(=O)O)C(=O)O)[C@@H](Cc1ccc(Cl)c(Cl)c1)c1ccc(-c2ccccc2)c(F)c1
3,> 300,C[C@@H](NC(=O)CC(CC(=O)O)C(=O)O)[C@H](Cc1ccc(Cl)c(Cl)c1)c1ccc(-c2ccccc2)c(F)c1 (some centres not stated)
4,0.52,C[C@H](NC(=O)C[C@@H](CC(=O)O)C(=O)O)[C@@H](Cc1ccc(Cl)c(Cl)c1)c1ccc(-c2ccccc2)c(F)c1
5,0.73,"C[C@H](NC(=O)CC(CC(=O)O)C(=O)O)[C@@H](Cc1ccc(Cl)c(Cl)c1)c1ccc(-c2ccccc2)c(F)c1 (single isomer, unassigned)"

# The next lines start with the molecule.
row,SMILES,IC50 [nM]
1,C[C@@H](NC(=O)C[C@H](CC(=O)O)C(=O)O)[C@H](Cc1ccc(Cl)c(Cl)c1)c1ccc(-c2ccccc2)c(F)c1,16
2,C[C@H](NC(=O)C[C@@H](CC(=O)O)C(=O)O)[C@@H](Cc1ccc(Cl)cc1)c1ccc(-c2ccccc2)cc1,3.2
3,CC(NC(=O)CC(CC(=O)O)C(=O)O)C(Cc1ccc(Cl)cc1)c1ccc(Cl)cc1 (configuration not stated),660
4,C[C@H](NC(=O)C[C@@H](CC(=O)O)C(=O)O)[C@@H](Cc1ccc(Cl)c(Cl)c1)c1ccc(-c2ccccc2)cc1,1.2

# Tested on: not listed separately
# Experiment: Inhibition of cholesterol synthesis by compound after oral administration at of 10-100 mg/kg/day in marmoset
# Assay type: functional
row,SMILES,Reduction [%]
1,C=C(CCC12OC(C(=O)O)C(O)(C(=O)O)C(C(=O)O)(O1)[C@H](OC(=O)/C=C/[C@@H](C)C[C@@H](C)CC)[C@H]2O)[C@@H](OC(C)=O)[C@H](C)Cc1ccccc1 (some centres not stated) [ZARAGOZIC ACID A],75

# Tested on: Mus musculus
# Experiment: Tested for inhibition of cholesterol synthesis by compound after oral administration at 10 mg/kg in mice
# Assay type: functional
row,SMILES,inhibition in vivo at 10 mg/kg [%]
1,C=C(CCC12OC(C(=O)O)C(O)(C(=O)O)C(C(=O)O)(O1)[C@H](OC(=O)/C=C/[C@@H](C)C[C@@H](C)CC)[C@H]2O)[C@@H](OC(C)=O)[C@H](C)Cc1ccccc1 (some centres not stated) [ZARAGOZIC ACID A],38

# Tested on: Mus musculus
# Experiment: Inhibition of cholesterol synthesis from [14C]acetate expressed as percent reduction in radioactivity in mice after oral administration of 3 mg/kg
# Assay type: functional
row,SMILES,Reduction [%]
1,C[C@H](NC(=O)C[C@@H](CC(=O)O)C(=O)O)[C@@H](Cc1ccc(Cl)c(Cl)c1)c1ccc(-c2ccccc2)c(F)c1,84
